Source: ChEMBL document CHEMBL5523725, “Fragment-Based Anti-inflammatory Agent Design and Target Identification: Discovery of AF-45 as an IRAK4 Inhibitor to Treat Ulcerative Colitis and Acute Lung Injury” (J Med Chem, 2024)
Activity calls are given as the source filed them. No cut-off for these calls is given here.

Legend:
Mus musculus [1] = assay: Antiinflammatory activity in male C57BL/6 mouse model of DSS-induced ulcerative colitis assessed as reduction in TNF-alpha level in serum at 10 mg/kg, po administered for 11 days with subsequent administration of DSS for 8 days by ELISA; type: functional, organism-based; settings: time 11.0 day
[2] = target: T1, Interleukin-1 receptor-associated kinase 4 (Mus musculus) (UniProt Q8R4K2); assay: Thermal stabilization of IRAK4 in mouse RAW264.7 cells at 10 uM measured after 4 hrs by CETSA; type: cell-based
T1 sequence (whole entry): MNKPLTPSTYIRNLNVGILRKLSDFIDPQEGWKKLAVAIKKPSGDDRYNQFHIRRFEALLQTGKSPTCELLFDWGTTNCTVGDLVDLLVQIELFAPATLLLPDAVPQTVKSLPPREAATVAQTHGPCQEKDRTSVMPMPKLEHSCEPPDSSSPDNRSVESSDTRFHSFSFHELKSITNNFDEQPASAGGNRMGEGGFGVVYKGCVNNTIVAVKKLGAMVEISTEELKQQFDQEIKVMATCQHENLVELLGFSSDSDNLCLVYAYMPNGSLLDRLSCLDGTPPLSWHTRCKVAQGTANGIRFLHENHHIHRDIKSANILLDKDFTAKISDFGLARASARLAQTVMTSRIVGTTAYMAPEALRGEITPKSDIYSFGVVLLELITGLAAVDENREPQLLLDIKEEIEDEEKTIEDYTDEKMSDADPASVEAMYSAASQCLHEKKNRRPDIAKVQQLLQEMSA

RAW264.7 [3] = assay: Inhibition of NFkappaB/MAPK signaling pathway in mouse RAW264.7 cells assessed as reduction in LPS-induced p38 phosphorylation at 50 uM by Western blot analysis; type: cell-based
Mus musculus [4] = assay: Antiinflammatory activity in male C57BL/6 mouse model of DSS-induced ulcerative colitis assessed as reduction in macrophage infiltration in spleen at 10 mg/kg, po administered for 11 days with subsequent administration of DSS for 8 days by F4/80 labeling based immunohistochemistry analysis; type: functional, organism-based; settings: time 11.0 day
Mus musculus [5] = assay: Anti-colitis activity in male C57BL/6 mouse model of DSS-induced ulcerative colitis assessed as colon length at 10 mg/kg, po administered for 11 days with subsequent administration of DSS for 8 days (reference value: 5.2 cm); type: functional; settings: time 11 day
Mus musculus [6] = assay: Antiinflammatory activity in male C57BL/6 mouse model of DSS-induced ulcerative colitis assessed as preservation of goblet cells at 10 mg/kg, po administered for 11 days with subsequent administration of DSS for 8 days by H and E staining based analysis; type: functional, organism-based; settings: time 11.0 day
RAW264.7 [7] = assay: Inhibition of NFkappaB/MAPK signaling pathway in mouse RAW264.7 cells assessed as reduction in LPS-induced IkappaBalpha degradation at 50 uM by Western blot analysis; type: cell-based
Mus musculus [8] = assay: Antiinflammatory activity in male C57BL/6 mouse model of DSS-induced ulcerative colitis assessed as restoration of protein status at 10 mg/kg, po administered for 11 days with subsequent administration of DSS for 8 days by H and E staining based analysis; type: functional, organism-based; settings: time 11.0 day
Mus musculus [9] = assay: Antiinflammatory activity in male C57BL/6 mouse model of DSS-induced ulcerative colitis assessed as reduction in colonic structure destruction at 10 mg/kg, po administered for 11 days with subsequent administration of DSS for 8 days by H and E staining based analysis; type: functional, organism-based; settings: time 11.0 day
Mus musculus [10] = assay: Antiinflammatory activity in male C57BL/6 mouse model of DSS-induced ulcerative colitis assessed as reduction in spleen to body weight ratio at 10 mg/kg, po administered for 11 days with subsequent administration of DSS for 8 days; type: functional, organism-based; settings: time 11.0 day
Mus musculus [11] = assay: In vivo binding affinity to IRAK4 in DSS-induced ulcerative colitis C57BL/6 mouse colon assessed as thermal stabilization at 10 mg/kg, po administered for 11 days with subsequent administration of DSS for 8 days by CETSA; type: functional, organism-based; settings: time 11.0 day
RAW264.7 [12] = assay: Inhibition of NFkappaB/MAPK signaling pathway in mouse RAW264.7 cells assessed as reduction in LPS-induced p65 phosphorylation at 50 uM by Western blot analysis; type: cell-based
Mus musculus [13] = assay: Antiinflammatory activity in male C57BL/6 mouse model of DSS-induced ulcerative colitis assessed as reduction in IL-6 level in serum at 10 mg/kg, po administered for 11 days with subsequent administration of DSS for 8 days by ELISA; type: functional, organism-based; settings: time 11.0 day
[14] = Half life in po dosed rat; type: ADME, organism-based; settings: in vivo
Mus musculus [15] = assay: Antiinflammatory activity in male C57BL/6 mouse model of DSS-induced ulcerative colitis assessed as reduction in macrophage infiltration in colon at 10 mg/kg, po administered for 11 days with subsequent administration of DSS for 8 days by F4/80 labeling based immunohistochemistry analysis; type: functional, organism-based; settings: time 11.0 day
RAW264.7 [16] = assay: Inhibition of NFkappaB/MAPK signaling pathway in mouse RAW264.7 cells assessed as reduction in LPS-induced JNK phosphorylation at 50 uM by Western blot analysis; type: cell-based

## CC[C@@H]1[C@H](F)C(=O)N[C@@H]1COc1nccc2cc(C(N)=O)c(OC)cc12 [ZIMLOVISERTIB]
Mus musculus [1]
  Activity: Active
[2]
  Activity: Active
RAW264.7 [3]
  inhibition: Active
Mus musculus [4]
  Activity: Active
Mus musculus [5]
  Activity: 5.5 cm
Mus musculus [6]
  Activity: Active
RAW264.7 [7]
  inhibition: Active
Mus musculus [8]
  Activity: Active
Mus musculus [9]
  Activity: Active
Mus musculus [10]
  Activity: Active
Mus musculus [11]
  Activity: inactive
RAW264.7 [12]
  inhibition: Active
Mus musculus [13]
  Activity: Active
[14]
  half-life: 2.8 h
Mus musculus [15]
  Activity: Active
RAW264.7 [16]
  inhibition: Active
